Target: T1, TRPC4 protein (Homo sapiens, UniProt Q9UBN4)
T1 sequence (Q9UBN4 1-977): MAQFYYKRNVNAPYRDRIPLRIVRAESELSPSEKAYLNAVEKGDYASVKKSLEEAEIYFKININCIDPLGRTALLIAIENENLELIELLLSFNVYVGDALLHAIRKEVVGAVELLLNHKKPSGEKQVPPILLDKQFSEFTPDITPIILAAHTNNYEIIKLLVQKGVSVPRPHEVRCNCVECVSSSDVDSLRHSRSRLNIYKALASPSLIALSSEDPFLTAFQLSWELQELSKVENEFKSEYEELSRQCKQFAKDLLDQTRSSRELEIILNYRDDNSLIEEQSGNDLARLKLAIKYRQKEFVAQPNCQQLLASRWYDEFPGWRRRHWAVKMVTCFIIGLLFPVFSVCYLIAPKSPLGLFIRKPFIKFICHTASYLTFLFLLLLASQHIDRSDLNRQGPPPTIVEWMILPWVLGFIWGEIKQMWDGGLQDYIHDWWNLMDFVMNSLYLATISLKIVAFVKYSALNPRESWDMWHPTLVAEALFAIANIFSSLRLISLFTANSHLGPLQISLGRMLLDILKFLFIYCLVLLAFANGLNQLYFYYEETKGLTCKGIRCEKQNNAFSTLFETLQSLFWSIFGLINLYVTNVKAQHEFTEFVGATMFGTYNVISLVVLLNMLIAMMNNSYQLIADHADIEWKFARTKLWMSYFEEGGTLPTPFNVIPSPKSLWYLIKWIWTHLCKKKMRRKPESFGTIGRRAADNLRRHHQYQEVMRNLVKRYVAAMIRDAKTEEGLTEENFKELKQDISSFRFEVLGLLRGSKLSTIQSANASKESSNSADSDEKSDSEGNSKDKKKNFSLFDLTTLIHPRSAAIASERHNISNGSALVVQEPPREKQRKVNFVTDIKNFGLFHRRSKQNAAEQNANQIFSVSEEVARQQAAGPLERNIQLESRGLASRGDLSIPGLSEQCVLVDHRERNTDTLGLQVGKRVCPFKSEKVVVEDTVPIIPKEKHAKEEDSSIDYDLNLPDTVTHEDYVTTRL
Assay: MST binding to TRPC4 protein
Procedure: Preparation and labelling of protein solution: TRPC6 protein dry powder (Alomone Labs, Israel) was prepared into a protein mother solution at a concentration of 10 μM using PBS-Buffer, and 35 μL of the protein stock solution was taken to the Buffer exchange A column, and centrifuged to obtain the Tris-removed protein. 34 μL Labelling Buffer was added to the Tris-removed protein according to the instructions of the Protein Fluorescent Labelling Kit (model L001). After mixing well, 3 μL of NT-647-NHS fluorescent dye was added and thus obtained mixture was incubated for 20 minutes. The protein-dye mixture was transferred to the purification B column, 300 μL of PBS-Buffer was added, and the target protein, i.e. fluorescent labelled protein TRPC6, was collected by centrifugation (with a final concentration of about 2 μM). 180 μL of target protein was mixed with 1620 μL of PBS-Buffer, and then 9 μl of Tween-20 were added thereto. […]
The binding ability of the compounds of the present invention (as exemplified by the compounds 1-1 and 2-1 obtained in Examples 1 and 3) for other TRPC proteins (e.g., TRPC1, TRPC3, TRPC4, TRPC5, and TRPC7) was determined using the microscale thermophoresis (MST) method. […]
The affinity of the compounds of the present invention with TRPC1, TRPC3, TRPC4, TRPC5 and TRPC7 proteins, respectively, was determined by the same method as in Example 5.

SMILES	Kd for binding to TRPC4 protein
CC(=O)OCCCNC(=O)c1c(C=O)c2ccccc2n1C [compound 1-1, propyl 3-[(3-formyl-1-methyl-1H-indole-2-carbonyl)amino]acetate]	cannot be measured
Cn1c(C(=O)NCCCOC(=O)c2ccccc2)c(C=O)c2ccccc21 [compound 2-1]	cannot be measured

— patent publication US12692232B2, “Indole carboxamide compound, preparation therefor and use thereof” (NANJING RUISHUNING MEDICAL TECHNOLOGY CO., LTD., priority 2021, dated 2026)
